The structures appear in SMILES notation. Several values for one entry are separate records, joined by “and”; a condition that tells them apart may be missing. Equal entries are not always repeated.

One experiment relates to Ub-PCNA in HEK293T cells. The experiment in a line: Western blot of Ub-PCNA level in cells. Type of experiment: cell-based, human.
Experiment [1] deals with Ub-FANCD2 in HEK293T cells. The experiment in a line: Western blot of Ub-FANCD2 level in cells. Type of experiment: cell-based, human.
A further experiment concerns the target USP46/UAF1 (Homo sapiens, UniProt P62068). The experiment in a line: K63-linked diubiquitin cleavage assay, USP46/UAF1. The experiment is classed as biochemical.
For another experiment, the target named is T1, caspase-1 (Homo sapiens, UniProt P29466).
T1 sequence (P29466 120-297 limits assumed): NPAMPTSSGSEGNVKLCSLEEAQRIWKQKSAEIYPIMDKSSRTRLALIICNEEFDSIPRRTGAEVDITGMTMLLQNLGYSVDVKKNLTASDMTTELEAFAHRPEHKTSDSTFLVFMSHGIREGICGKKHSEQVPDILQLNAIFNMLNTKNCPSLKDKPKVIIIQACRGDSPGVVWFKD
T1 sequence (P29466 317-404 limits assumed): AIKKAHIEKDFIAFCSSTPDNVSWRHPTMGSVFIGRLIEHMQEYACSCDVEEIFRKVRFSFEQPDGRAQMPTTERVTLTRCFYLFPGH
Kind of experiment: cysteine protease selectivity, caspase-1. The experiment is classed as biochemical.

The target of the next experiment is T2, papain (Carica papaya, UniProt P00784).
T2 sequence (P00784 134-345): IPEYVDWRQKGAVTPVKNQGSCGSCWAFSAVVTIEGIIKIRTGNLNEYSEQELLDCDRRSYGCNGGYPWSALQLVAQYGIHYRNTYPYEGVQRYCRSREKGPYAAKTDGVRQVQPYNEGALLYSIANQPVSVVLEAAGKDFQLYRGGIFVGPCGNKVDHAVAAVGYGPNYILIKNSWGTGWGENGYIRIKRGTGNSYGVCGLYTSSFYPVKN
The experiment in a line: cysteine protease selectivity, papain. The experiment is classed as biochemical.

A further experiment addresses T3, caspase-6 (Homo sapiens, UniProt P55212).
T3 sequence (P55212 24-179 limits assumed): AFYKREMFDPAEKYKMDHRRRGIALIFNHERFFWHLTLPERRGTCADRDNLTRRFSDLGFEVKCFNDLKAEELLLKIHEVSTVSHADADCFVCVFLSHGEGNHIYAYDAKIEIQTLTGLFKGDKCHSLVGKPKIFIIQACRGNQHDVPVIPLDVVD
T3 sequence (P55212 194-293 limits assumed): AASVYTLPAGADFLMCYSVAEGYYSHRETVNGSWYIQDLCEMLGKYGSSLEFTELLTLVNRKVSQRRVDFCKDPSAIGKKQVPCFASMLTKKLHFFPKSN
Kind of experiment: cysteine protease selectivity, caspase-6. The experiment is classed as biochemical.

Experiment [2] concerns the target USP1/UAF1 (Homo sapiens, UniProt O94782). The experiment in a line: gel-based K63-linked diubiquitin cleavage assay, USP1/UAF1. Type of experiment: biochemical. Conditions: IC50 USP1/UAF1, K63-linked diubiquitin substrate; NI = no significant inhibition at highest inhibitor concentration of 114 μM.
A further experiment concerns the target T4, USP5 (Homo sapiens, UniProt P45974).
T4 sequence (P45974 1-858): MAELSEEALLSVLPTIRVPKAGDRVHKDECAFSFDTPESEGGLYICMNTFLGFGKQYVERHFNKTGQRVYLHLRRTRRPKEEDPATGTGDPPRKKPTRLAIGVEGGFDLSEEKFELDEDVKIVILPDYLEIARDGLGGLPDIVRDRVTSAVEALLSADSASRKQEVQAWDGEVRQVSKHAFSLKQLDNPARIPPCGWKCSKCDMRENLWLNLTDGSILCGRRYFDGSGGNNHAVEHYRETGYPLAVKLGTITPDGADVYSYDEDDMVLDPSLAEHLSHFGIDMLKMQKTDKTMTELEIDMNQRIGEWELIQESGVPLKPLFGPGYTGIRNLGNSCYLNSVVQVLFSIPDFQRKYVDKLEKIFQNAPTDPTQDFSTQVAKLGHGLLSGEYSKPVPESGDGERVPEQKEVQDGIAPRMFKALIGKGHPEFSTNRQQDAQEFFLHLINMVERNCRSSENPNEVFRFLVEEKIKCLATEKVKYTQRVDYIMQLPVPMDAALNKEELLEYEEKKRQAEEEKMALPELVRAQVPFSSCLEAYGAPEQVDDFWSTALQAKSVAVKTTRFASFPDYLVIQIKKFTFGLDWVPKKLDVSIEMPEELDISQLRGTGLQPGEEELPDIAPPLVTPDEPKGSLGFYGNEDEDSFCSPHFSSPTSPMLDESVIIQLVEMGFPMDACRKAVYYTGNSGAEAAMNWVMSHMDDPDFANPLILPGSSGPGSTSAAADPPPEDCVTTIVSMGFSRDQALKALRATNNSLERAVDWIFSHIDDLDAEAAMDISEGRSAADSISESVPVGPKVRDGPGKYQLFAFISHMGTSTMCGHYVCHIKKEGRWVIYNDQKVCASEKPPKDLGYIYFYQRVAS
The experiment in a line: K63-linked diubiquitin cleavage assay, USP5.

Experiment [3] has as its target USP1/UAF1 (Homo sapiens, UniProt O94782+Q8TAF3). Kind of experiment: reversibility of inhibition by rapid dilution. Conditions: incubation at 10 times IC50, 100-fold rapid dilution.
For another experiment, the target named is T5, caspase-3 (Homo sapiens, UniProt P42574).
T5 sequence (P42574 29-175 limits assumed): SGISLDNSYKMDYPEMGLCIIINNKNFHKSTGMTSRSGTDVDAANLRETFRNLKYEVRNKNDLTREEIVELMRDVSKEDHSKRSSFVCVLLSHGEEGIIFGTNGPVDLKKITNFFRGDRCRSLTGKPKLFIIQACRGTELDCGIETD
T5 sequence (P42574 176-277 limits assumed): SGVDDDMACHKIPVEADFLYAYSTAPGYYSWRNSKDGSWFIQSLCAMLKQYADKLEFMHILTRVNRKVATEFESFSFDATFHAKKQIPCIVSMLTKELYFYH
The experiment in a line: cysteine protease selectivity, caspase-3. The experiment is classed as biochemical.

Sequence of USP1/UAF1 (Homo sapiens, UniProt O94782) (O94782 whole entry): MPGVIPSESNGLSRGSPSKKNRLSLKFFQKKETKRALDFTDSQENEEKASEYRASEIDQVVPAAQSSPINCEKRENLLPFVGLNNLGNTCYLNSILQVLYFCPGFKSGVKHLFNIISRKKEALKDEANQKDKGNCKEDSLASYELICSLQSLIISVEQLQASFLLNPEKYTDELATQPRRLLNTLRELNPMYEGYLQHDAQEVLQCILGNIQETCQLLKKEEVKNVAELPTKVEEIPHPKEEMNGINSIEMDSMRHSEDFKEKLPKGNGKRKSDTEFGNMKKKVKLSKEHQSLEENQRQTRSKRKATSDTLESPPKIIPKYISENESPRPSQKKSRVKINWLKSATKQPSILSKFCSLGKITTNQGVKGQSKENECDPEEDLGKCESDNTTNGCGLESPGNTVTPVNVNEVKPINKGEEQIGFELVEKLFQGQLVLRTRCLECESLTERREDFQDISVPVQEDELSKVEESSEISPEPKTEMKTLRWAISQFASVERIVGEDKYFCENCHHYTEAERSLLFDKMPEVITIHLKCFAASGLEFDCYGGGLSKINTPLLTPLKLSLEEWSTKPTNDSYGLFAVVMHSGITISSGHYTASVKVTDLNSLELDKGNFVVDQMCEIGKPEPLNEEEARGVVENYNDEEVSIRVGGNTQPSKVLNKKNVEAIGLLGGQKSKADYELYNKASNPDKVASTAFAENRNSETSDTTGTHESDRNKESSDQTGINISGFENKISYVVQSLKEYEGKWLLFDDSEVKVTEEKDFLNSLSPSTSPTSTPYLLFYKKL
Sequence of USP1/UAF1 (Homo sapiens, UniProt O94782) (Q8TAF3 whole entry, further chain): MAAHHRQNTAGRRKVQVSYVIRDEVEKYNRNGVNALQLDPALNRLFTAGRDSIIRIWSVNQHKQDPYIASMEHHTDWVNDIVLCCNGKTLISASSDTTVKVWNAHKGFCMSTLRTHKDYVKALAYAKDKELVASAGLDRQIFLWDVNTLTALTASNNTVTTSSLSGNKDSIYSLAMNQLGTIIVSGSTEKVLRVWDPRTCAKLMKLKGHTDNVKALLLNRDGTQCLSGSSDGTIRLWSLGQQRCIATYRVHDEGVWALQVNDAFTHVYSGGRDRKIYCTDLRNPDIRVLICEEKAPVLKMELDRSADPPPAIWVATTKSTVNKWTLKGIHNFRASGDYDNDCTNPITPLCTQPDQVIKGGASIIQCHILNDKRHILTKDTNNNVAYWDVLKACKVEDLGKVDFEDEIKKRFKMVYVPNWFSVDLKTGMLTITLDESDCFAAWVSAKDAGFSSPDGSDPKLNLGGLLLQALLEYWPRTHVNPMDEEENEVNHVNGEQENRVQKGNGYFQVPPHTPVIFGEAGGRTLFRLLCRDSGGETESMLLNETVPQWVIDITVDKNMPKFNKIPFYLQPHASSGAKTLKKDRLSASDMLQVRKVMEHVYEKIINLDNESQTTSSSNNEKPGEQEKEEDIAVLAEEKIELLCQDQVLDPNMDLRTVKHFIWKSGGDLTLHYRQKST
Sequence of USP1/UAF1 (Homo sapiens, UniProt O94782+Q8TAF3) (O94782 whole entry): as the sequence (O94782 whole entry) above
Sequence of USP1/UAF1 (Homo sapiens, UniProt O94782+Q8TAF3) (Q8TAF3 whole entry): as the sequence (Q8TAF3 whole entry, further chain) above
Sequence of USP46/UAF1 (P62068 whole entry): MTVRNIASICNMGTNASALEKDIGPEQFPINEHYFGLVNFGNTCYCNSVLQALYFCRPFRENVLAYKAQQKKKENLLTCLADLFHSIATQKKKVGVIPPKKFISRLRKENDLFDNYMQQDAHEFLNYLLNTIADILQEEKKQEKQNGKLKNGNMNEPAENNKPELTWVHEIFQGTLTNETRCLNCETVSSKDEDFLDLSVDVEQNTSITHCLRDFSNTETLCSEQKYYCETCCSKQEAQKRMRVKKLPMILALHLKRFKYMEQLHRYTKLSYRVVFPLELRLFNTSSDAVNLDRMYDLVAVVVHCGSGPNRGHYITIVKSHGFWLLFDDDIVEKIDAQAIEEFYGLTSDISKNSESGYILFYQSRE
Sequence of USP46/UAF1 (Q8TAF3 whole entry partner): as the sequence (Q8TAF3 whole entry, further chain) above

For the compound `N.N.[Cl][Pt][Cl]` [Cisplatin, cisplatin], the “monoubiquitination of PCNA, single agent” value in the experiment with Ub-PCNA in HEK293T cells is reported as “a small, but significant, percent of Ub-PCNA was detected”. Besides, the “percentage of FANCD2 monoubiquitinated” value in experiment [1] was “approximately 25%”.

As for `CC(=O)c1c(O)c(C)c(O)c(Cc2c(O)c3c(c(C(=O)/C=C/c4ccccc4)c2O)OC(C)(C)C=C3)c1O` [Rottlerin, rottlerin], the IC50 on USP46/UAF1 is 15 ± 1 µM; against caspase-1 it was 5 to 45 µM; on papain, 5 to 45 µM; on caspase-6, 5 to 45 µM; on USP1/UAF1 [2], ≤ 8 µM and 6 to 34 µM; at USP5 it was greater than 114 µM. Besides, on caspase-3, the IC50 was in the range of 5 to 45 µM. For the same compound, at USP1/UAF1 [3], the reversibility of inhibition entry was “irreversible inhibitor”.

(Values after publication PMC3344384 (Chemistry & biology, 2011).)
